Data taken from US11591355B2 (Peloton Therapeutics, Inc., priority 2017, dated 2023).

Legend:
[1] = biological target: T1, CD73 on U138 human neuroglioma cells (Homo sapiens, UniProt P21589); experiment: CD73 Cell-Based Assay; settings: U138 cells, AMP substrate, 2 hours at 37° C., inorganic phosphate by malachite green
T1 construct: U138 cells were obtained from ATCC and cultured in DMEM with 10% FBS; host or cells: U138 human neuroglioma cells
T1 sequence (P21589 27-549): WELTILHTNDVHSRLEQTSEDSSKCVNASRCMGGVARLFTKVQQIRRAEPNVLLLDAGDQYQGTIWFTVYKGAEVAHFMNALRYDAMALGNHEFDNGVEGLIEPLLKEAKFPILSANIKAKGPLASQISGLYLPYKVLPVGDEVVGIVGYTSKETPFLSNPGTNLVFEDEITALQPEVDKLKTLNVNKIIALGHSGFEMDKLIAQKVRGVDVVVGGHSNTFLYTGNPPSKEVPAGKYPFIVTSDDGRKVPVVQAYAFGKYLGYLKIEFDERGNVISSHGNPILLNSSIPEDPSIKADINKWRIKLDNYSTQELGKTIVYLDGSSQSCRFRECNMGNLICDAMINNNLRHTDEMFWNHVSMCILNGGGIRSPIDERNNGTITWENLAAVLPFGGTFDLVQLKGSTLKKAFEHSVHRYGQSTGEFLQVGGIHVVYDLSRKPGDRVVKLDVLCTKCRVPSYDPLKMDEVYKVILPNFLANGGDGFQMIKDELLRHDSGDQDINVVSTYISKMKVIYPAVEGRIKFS
Procedure: U138 human neuroglioma cells were used in these experiments. U138 cells were obtained from ATCC and cultured in DMEM with 10% FBS. 2500 cells were seeded into 96-well plate with 100 μL of media the day before the experiment. Cells were washed twice with 200 μL of assay buffer (20 mM HEPES, pH 7.4; 137 mM NaCl; 5.4 mM KCl; 1.3 mM CaCl2); 4.2 mM NaHCO3; 1 mg/mL glucose) to remove residual inorganic phosphate. After washing, 100 μL of buffer was added to each well, then 100 μL of a mixture of AMP substrate (200 μM) and diluted compound was added to each well. The cells were incubated at 37° C. (with 5% CO2) for 2 hours. 50 μL of supernatant was transferred to a 96-well assay plate and the concentration of inorganic phosphate was determined using malachite green reagent (R&D System; Cat: DY996).

Human CD73 = biological target: T2, Human CD73 (Homo sapiens, UniProt P21589); experiment: CD73 Enzyme Assay; type: biochemical; settings: 0.25 nM hCD73, 25 μM AMP, kinetic read at 360 nm; read-out: CD73 Enzyme Assay IC50
T2 construct: purchased R&D Systems; host or cells: CHO cells
T2 sequence (P21589 27-549): T1 sequence (P21589 27-549)

SMILES | IC50 [1] | IC50 (Human CD73)
CC[C@@H](Nc1nc(Cl)nc2c1ccn2[C@@H]1O[C@H](COCP(=O)(O)O)[C@@H](O)[C@H]1O)c1ccccc1 [Compound 77, [(2R,3S,4R,5R)-5-[2-chloro-4-[[(1R)-1-phenylpropyl]amino]-pyrrolo[2,3-d]-pyrimidin-7-yl]-3,4-dihydroxy-tetrahydro-furan-2-yl]methoxy-methylphosphonic acid] | 10 to 100 nM | 10 to 100 nM
C[C@H](Nc1nc(C#N)nc2c1ccn2[C@@H]1O[C@H](COCP(=O)(O)O)[C@@H](O)[C@H]1O)c1ccccc1F [Compound 80, [(2R,3S,4R,5R)-5-[2-cyano-4-[[(1S)-1-(2-fluorophenyl)ethyl]-amino]pyrrolo[2,3-d]-pyrimidin-7-yl]-3,4-dihydroxy-tetrahydro-furan-2-yl]methoxy-methylphosphonic acid] | < 10 nM | < 10 nM
O=P(O)(O)COC[C@H]1O[C@@H](n2ccc3c(NC4CC(F)(F)C4)nc(Cl)nc32)[C@H](O)[C@@H]1O [Compound 83, [(2R,3S,4R,5R)-5-[2-chloro-4-[(3,3-difluoro-cyclobutyl)amino]-pyrrolo[2,3-d]-pyrimidin-7-yl]-3,4-dihydroxy-tetrahydro-furan-2-yl]methoxy-methylphosphonic acid] | < 10 nM | < 10 nM
CC[C@H](Nc1nc(Cl)nc2c1ccn2[C@@H]1O[C@H](COCP(=O)(O)O)[C@@H](O)[C@H]1O)c1ccccc1 [Compound 84, [(2R,3S,4R,5R)-5-[2-chloro-4-[[(1S)-1-phenylpropyl]amino]-pyrrolo[2,3-d]-pyrimidin-7-yl]-3,4-dihydroxy-tetrahydro-furan-2-yl]methoxy-methylphosphonic acid] | < 10 nM | < 10 nM
CC(C)[C@H](Nc1nc(Cl)nc2c1ccn2[C@@H]1O[C@H](COCP(=O)(O)O)[C@@H](O)[C@H]1O)c1ccccc1 [Compound 85, [(2R,3S,4R,5R)-5-[2-chloro-4-[[(1S)-2-methyl-1-phenyl-propyl]amino]pyrrolo-[2,3-d]pyrimidin-7-yl]-3,4-dihydroxy-tetrahydrofuran-2-yl]methoxymethyl-phosphonic acid] | < 10 nM | < 10 nM
Nc1nc(Cl)nc2c1ccn2[C@@H]1O[C@H](COCP(=O)(O)O)[C@@H](O)[C@H]1O [Compound 86, [(2R,3S,4R,5R)-5-(4-amino-2-chloro-pyrrolo[2,3-d]-pyrimidin-7-yl)-3,4-dihydroxy-tetrahydro-furan-2-yl]methoxy-methylphosphonic acid] | 100 to 1000 nM | 100 to 1000 nM
Cc1ccc([C@H](C)Nc2nc(Cl)nc3c2ccn3[C@@H]2O[C@H](COCP(=O)(O)O)[C@@H](O)[C@H]2O)cc1 [Compound 90, [(2R,3S,4R,5R)-5-[2-chloro-4-[[(1S)-1-(p-tolyl)ethyl]amino]-pyrrolo[2,3-d]-pyrimidin-7-yl]-3,4-dihydroxy-tetrahydro-furan-2-yl]methoxy-methylphosphonic acid] | < 10 nM | < 10 nM
C[C@@H](Nc1nc(Cl)nc2c1ccn2[C@@H]1O[C@H](COCP(=O)(O)O)[C@@H](O)[C@H]1O)c1ccc(Cl)cc1 [Compound 94, [(2R,3S,4R,5R)-5-[2-chloro-4-[[(1R)-1-(4-chlorophenyl)ethyl]-amino]pyrrolo[2,3-d]-pyrimidin-7-yl]-3,4-dihydroxy-tetrahydro-furan-2-yl]methoxy-methylphosphonic acid] | < 10 nM | < 10 nM
C[C@@H](Nc1nc(C#N)nc2c1ccn2[C@@H]1O[C@H](COCP(=O)(O)O)[C@@H](O)[C@H]1O)c1ccc(C#N)cc1 [Compound 95, [(2R,3S,4R,5R)-5-[2-cyano-4-[[(1R)-1-(4-cyanophenyl)ethyl]-amino]pyrrolo[2,3-d]-pyrimidin-7-yl]-3,4-dihydroxy-tetrahydro-furan-2-yl]methoxy-methylphosphonic acid] | 10 to 100 nM | 10 to 100 nM
CNc1nc(Cl)nc2c1ccn2[C@@H]1O[C@H](COCP(=O)(O)O)[C@@H](O)[C@H]1O [Compound 96, [(2R,3S,4R,5R)-5-[2-chloro-4-(methyl-amino)pyrrolo[2,3-d]-pyrimidin-7-yl]-3,4-dihydroxy-tetrahydro-furan-2-yl]methoxy-methylphosphonic acid] | 100 to 1000 nM | 100 to 1000 nM

The remaining lines, values ahead:

IC50 [1] | IC50 (Human CD73) | SMILES
< 10 nM | 10 to 100 nM | CC(C)[C@@H](Nc1nc(Cl)nc2c1ccn2[C@@H]1O[C@H](COCP(=O)(O)O)[C@@H](O)[C@H]1O)c1ccccc1 [Compound 78]
10 to 100 nM | < 10 nM | C[C@H](Nc1nc(Cl)nc2c1ccn2[C@@H]1O[C@H](COCP(=O)(O)O)[C@@H](O)[C@H]1O)c1ccccc1F [Compound 79, [(2R,3S,4R,5R)-5-[2-chloro-4-[[(1S)-1-(2-fluorophenyl)ethyl]-amino]pyrrolo[2,3-d]-pyrimidin-7-yl]-3,4-dihydroxy-tetrahydro-furan-2-yl]methoxy-methylphosphonic acid]
< 10 nM | < 10 nM | C[C@@H](Nc1nc(C#N)nc2c1ccn2[C@@H]1O[C@H](COCP(=O)(O)O)[C@@H](O)[C@H]1O)c1cccc(F)c1 [Compound 81, [(2R,3S,4R,5R)-5-[2-cyano-4-[[(1R)-1-(3-fluorophenyl)ethyl]-amino]pyrrolo[2,3-d]-pyrimidin-7-yl]-3,4-dihydroxy-tetrahydro-furan-2-yl]methoxy-methylphosphonic acid]
< 10 nM | 10 to 100 nM | C[C@@H](Nc1nc(Cl)nc2c1ccn2[C@@H]1O[C@H](COCP(=O)(O)O)[C@@H](O)[C@H]1O)c1cccc(F)c1 [Compound 82, [(2R,3S,4R,5R)-5-[2-chloro-4-[[(1R)-1-(3-fluorophenyl)ethyl]-amino]pyrrolo[2,3-d]-pyrimidin-7-yl]-3,4-dihydroxy-tetrahydro-furan-2-yl]methoxy-methylphosphonic acid]
< 10 nM | < 10 nM | C[C@@H](Nc1nc(Cl)nc2c1ccn2[C@@H]1O[C@H](COCP(=O)(O)O)[C@@H](O)[C@H]1O)c1ccccc1F [Compound 87, [(2R,3S,4R,5R)-5-[2-chloro-4-[[(1R)-1-(2-fluorophenyl)ethyl]-amino]pyrrolo[2,3-d]-pyrimidin-7-yl]-3,4-dihydroxy-tetrahydro-furan-2-yl]methoxy-methylphosphonic acid]
< 10 nM | < 10 nM | C[C@@H](Nc1nc(C#N)nc2c1ccn2[C@@H]1O[C@H](COCP(=O)(O)O)[C@@H](O)[C@H]1O)c1ccccc1F [Compound 88, [(2R,3S,4R,5R)-5-[2-cyano-4-[[(1R)-1-(2-fluorophenyl)ethyl]-amino]pyrrolo[2,3-d]-pyrimidin-7-yl]-3,4-dihydroxy-tetrahydro-furan-2-yl]methoxy-methylphosphonic acid]
< 10 nM | < 10 nM | C[C@@H](Nc1nc(Cl)nc2c1ccn2[C@@H]1O[C@H](COCP(=O)(O)O)[C@@H](O)[C@H]1O)c1ccc(C#N)cc1 [Compound 89, [(2R,3S,4R,5R)-5-[2-chloro-4-[[(1R)-1-(4-cyanophenyl)ethyl]-amino]pyrrolo[2,3-d]-pyrimidin-7-yl]-3,4-dihydroxy-tetrahydro-furan-2-yl]methoxy-methylphosphonic acid]
< 10 nM | < 10 nM | Cc1ccc([C@H](C)Nc2nc(C#N)nc3c2ccn3[C@@H]2O[C@H](COCP(=O)(O)O)[C@@H](O)[C@H]2O)cc1 [Compound 91, [(2R,3S,4R,5R)-5-[2-cyano-4-[[(1S)-1-(p-tolyl)ethyl]amino]-pyrrolo[2,3-d]-pyrimidin-7-yl]-3,4-dihydroxy-tetrahydro-furan-2-yl]methoxy-methylphosphonic acid]
< 10 nM | < 10 nM | CC(C)Nc1nc(Cl)nc2c1ccn2[C@@H]1O[C@H](COCP(=O)(O)O)[C@@H](O)[C@H]1O [Compound 92, [(2R,3S,4R,5R)-5-[2-chloro-4-(isopropyl-amino)pyrrolo[2,3-d]-pyrimidin-7-yl]-3,4-dihydroxy-tetrahydro-furan-2-yl]methoxy-methylphosphonic acid]
10 to 100 nM | < 10 nM | CN(C)c1nc(Cl)nc2c1ccn2[C@@H]1O[C@H](COCP(=O)(O)O)[C@@H](O)[C@H]1O [Compound 93, [(2R,3S,4R,5R)-5-[2-chloro-4-(dimethyl-amino)pyrrolo[2,3-d]-pyrimidin-7-yl]-3,4-dihydroxy-tetrahydro-furan-2-yl]methoxy-methylphosphonic acid]
